Reference: the NIST ThermoML archive (doi:10.1021/je200806n)
± gives the expanded uncertainty stated by the source.

Experiment: xn = mol fraction of the nth substance listed
Details: 101.3 kPa, Liquid

CCCC(C)O (stereo not drawn) [pentan-2-ol] + O=C1CCCCC1
Details	mass density, 298.15 K [kg/m3]	mass density, 303.15 K [kg/m3]	mass density, 308.15 K [kg/m3]	mass density, 313.15 K [kg/m3]	viscosity, 298.15 K [mPa·s]	viscosity, 303.15 K [mPa·s]	viscosity, 308.15 K [mPa·s]	viscosity, 313.15 K [mPa·s]
x2 = 0	805.41 ± 0.56	801.21 ± 0.56	796.64 ± 0.57	792.51 ± 0.57	3.499 ± 0.043	2.801 ± 0.034	2.334 ± 0.029	1.993 ± 0.025
x2 = 0.0824	815.31 ± 0.55	810.99 ± 0.55	806.31 ± 0.56	801.99 ± 0.56	2.631 ± 0.033	2.307 ± 0.029	1.891 ± 0.024	1.596 ± 0.02
x2 = 0.1615	825.12 ± 0.53	820.69 ± 0.54	815.92 ± 0.54	811.53 ± 0.55	2.178 ± 0.027	1.893 ± 0.024	1.541 ± 0.02	1.285 ± 0.017
x2 = 0.2401	835.08 ± 0.52	830.58 ± 0.53	825.68 ± 0.53	821.06 ± 0.54	1.822 ± 0.023	1.58 ± 0.02	1.265 ± 0.016	1.056 ± 0.014
x2 = 0.3492	849.18 ± 0.5	844.64 ± 0.51	839.56 ± 0.52	834.77 ± 0.52	1.465 ± 0.019	1.241 ± 0.016	1.007 ± 0.013	0.838 ± 0.011
x2 = 0.4397	861.19 ± 0.49	856.51 ± 0.49	851.41 ± 0.5	846.47 ± 0.51	1.277 ± 0.017	1.081 ± 0.014	0.881 ± 0.012	0.75 ± 0.01
x2 = 0.5607	877.71 ± 0.47	872.97 ± 0.47	867.74 ± 0.48	862.65 ± 0.49	1.191 ± 0.016	1.016 ± 0.014	0.865 ± 0.012	0.771 ± 0.011
x2 = 0.6496	890.14 ± 0.45	885.41 ± 0.46	880.19 ± 0.47	875.09 ± 0.47	1.23 ± 0.016	1.072 ± 0.014	0.935 ± 0.013	0.848 ± 0.012
x2 = 0.7399	903.04 ± 0.44	898.27 ± 0.44	893.11 ± 0.45	888.08 ± 0.46	1.354 ± 0.018	1.205 ± 0.016	1.062 ± 0.014	0.982 ± 0.013
x2 = 0.8498	919.21 ± 0.42	914.43 ± 0.42	909.42 ± 0.43	904.33 ± 0.44	1.597 ± 0.02	1.417 ± 0.018	1.294 ± 0.017	1.194 ± 0.016
x2 = 0.9396	932.71 ± 0.4	928.12 ± 0.41	923.33 ± 0.41	917.99 ± 0.42	1.855 ± 0.023	1.685 ± 0.021	1.523 ± 0.019	1.388 ± 0.018
